In ChEMBL document CHEMBL5346941, “Design, synthesis and evaluation of novel monoamine oxidase B (MAO-B) inhibitors with improved pharmacokinetic properties for Parkinson's disease” (Eur J Med Chem, 2023):
pIC50: −log10 of the molar value. Activity calls are given as the source filed them. No cut-off for these calls is given here.

Experiments:
[1] = tested on: Mus musculus; experiment: Anti-parkinson activity in MPTP-induced dopamine deficit C57BL/6 mouse model assessed as increase in dopamine concentration in striatum at 3 to 10 mg/kg, ip pretreated with MPTP for 4 hrs followed by compound administration for 5 times once every 4 hrs further incubated with benserazide at 12.5 mg/kg for 30 mins prior to last dose and measured after 30 mins by HPLC analysis; format: functional, organism-based; conditions: dose 3-10 mg/kg, time 16.5 hrs
[2] = Drug concentration in Sprague-Dawley rat brain at 5 mg/kg, ip measured after 15 mins by LC-MS/MS analysis; format: ADME, organism-based; conditions: read-out: Ct
[3] = Protein binding in rat plasma at 1 uM incubated for 5 hrs by LC-MS/MS based rapid equilibrium dialysis method; format: ADME, cell-free; conditions: read-out: PPB (converted)
[4] = biological target: CYP2C9 (Homo sapiens, UniProt P11712); experiment: Inhibition of CYP2C9 in human liver microsomes using diclofenac as substrate at 10 uM incubated for 10 mins in presence of NADPH by LC-MS/MS analysis relative to control; format: ADME, Microsome; conditions: probe diclofenac
Sequence of CYP2C9 (P11712 whole entry): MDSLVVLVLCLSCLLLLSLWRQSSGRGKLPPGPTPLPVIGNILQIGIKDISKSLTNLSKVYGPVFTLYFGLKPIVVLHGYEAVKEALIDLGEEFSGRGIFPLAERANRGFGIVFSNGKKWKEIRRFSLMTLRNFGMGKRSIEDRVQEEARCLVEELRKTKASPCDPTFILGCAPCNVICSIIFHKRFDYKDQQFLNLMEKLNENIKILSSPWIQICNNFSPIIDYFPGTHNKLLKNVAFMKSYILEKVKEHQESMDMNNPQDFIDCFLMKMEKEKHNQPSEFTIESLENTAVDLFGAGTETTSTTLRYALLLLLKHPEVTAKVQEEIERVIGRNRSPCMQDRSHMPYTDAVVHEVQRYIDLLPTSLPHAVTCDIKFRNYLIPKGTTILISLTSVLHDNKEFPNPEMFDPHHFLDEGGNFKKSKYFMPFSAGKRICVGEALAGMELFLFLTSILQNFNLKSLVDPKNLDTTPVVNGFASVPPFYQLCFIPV

[5] = Volume of distribution at steady state in fasted ICR mouse at 2 mg/kg, iv measured for 24 hrs; format: ADME, organism-based; conditions: in vivo, read-out: Vdss
[6] = Elimination half life in fasted Sprague-Dawley rat at 1 mg/kg, iv measured for 24 hrs; format: ADME, organism-based; conditions: in vivo, read-out: beta t1/2 (converted)
[7] = Metabolic stability in monkey liver microsomes assessed as half life at 1 uM incubated for 60 mins in presence of NADPH by LC-MS/MS analysis; format: ADME, Macaca mulatta, Microsome; conditions: rhesus monkey
[8] = biological target: CYP2C19 (Homo sapiens, UniProt P33261); experiment: Inhibition of CYP2C19 in human liver microsomes using omeprazole as substrate at 10 uM incubated for 45 mins in presence of NADPH by LC-MS/MS analysis relative to control; format: ADME, Microsome; conditions: probe omeprazole
Sequence of CYP2C19 (P33261 whole entry): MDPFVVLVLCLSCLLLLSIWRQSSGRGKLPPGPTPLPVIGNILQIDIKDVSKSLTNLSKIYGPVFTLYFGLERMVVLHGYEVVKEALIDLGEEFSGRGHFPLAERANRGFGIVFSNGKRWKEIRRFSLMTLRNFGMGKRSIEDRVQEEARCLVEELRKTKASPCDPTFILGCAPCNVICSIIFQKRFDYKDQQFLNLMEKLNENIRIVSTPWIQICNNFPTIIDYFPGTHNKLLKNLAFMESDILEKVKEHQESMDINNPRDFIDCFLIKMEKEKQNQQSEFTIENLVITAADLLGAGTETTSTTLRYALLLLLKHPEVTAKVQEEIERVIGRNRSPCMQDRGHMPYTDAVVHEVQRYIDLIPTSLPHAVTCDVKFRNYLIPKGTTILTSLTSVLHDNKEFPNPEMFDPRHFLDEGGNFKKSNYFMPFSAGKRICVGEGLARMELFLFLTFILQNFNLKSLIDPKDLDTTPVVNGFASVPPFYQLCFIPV

[9] = biological target: CYP3A4 (Homo sapiens, UniProt P08684); experiment: Inhibition of CYP3A4 in human liver microsomes using midazolam as substrate at 10 uM incubated for 5 mins in presence of NADPH by LC-MS/MS analysis relative to control; format: ADME, Microsome; conditions: probe midazolam
Sequence of CYP3A4 (P08684 whole entry): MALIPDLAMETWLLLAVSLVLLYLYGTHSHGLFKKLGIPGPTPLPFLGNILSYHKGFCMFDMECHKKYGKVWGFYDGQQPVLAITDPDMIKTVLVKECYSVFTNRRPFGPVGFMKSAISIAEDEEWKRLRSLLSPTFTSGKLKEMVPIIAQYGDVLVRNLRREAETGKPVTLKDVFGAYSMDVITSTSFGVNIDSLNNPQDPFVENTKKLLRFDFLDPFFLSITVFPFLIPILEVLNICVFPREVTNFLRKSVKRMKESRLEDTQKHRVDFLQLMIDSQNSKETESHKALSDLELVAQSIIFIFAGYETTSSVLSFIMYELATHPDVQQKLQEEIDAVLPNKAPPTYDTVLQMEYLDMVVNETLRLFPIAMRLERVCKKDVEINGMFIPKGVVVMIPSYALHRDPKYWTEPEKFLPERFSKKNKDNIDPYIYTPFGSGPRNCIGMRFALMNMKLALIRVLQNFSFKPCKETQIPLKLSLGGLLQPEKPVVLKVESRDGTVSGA

[10] = Bioavailability in fasted ICR mouse at 5 mg/kg, IG measured for 24 hrs; format: ADME, organism-based; conditions: in vivo, po
[11] = Protein binding in monkey plasma at 0.1 to 10 uM incubated for 5 hrs by LC-MS/MS based rapid equilibrium dialysis method; format: ADME, cell-free, Macaca mulatta; conditions: rhesus monkey, dose 0.1-10 µM, read-out: PPB (converted)
[12] = Protein binding in human plasma at 1 uM incubated for 5 hrs by LC-MS/MS based rapid equilibrium dialysis method; format: ADME, cell-free; conditions: read-out: PPB (converted)
[13] = biological target: T1, Amine oxidase [flavin-containing] A (Homo sapiens, UniProt P21397); experiment: Inhibition of recombinant human MAO-A expressed in Sf9 cells using […] as substrate preincubated for 15 mins followed by substrate addition and measured after 60 mins by luciferin based luminescence analysis
T1 sequence (P21397 whole entry): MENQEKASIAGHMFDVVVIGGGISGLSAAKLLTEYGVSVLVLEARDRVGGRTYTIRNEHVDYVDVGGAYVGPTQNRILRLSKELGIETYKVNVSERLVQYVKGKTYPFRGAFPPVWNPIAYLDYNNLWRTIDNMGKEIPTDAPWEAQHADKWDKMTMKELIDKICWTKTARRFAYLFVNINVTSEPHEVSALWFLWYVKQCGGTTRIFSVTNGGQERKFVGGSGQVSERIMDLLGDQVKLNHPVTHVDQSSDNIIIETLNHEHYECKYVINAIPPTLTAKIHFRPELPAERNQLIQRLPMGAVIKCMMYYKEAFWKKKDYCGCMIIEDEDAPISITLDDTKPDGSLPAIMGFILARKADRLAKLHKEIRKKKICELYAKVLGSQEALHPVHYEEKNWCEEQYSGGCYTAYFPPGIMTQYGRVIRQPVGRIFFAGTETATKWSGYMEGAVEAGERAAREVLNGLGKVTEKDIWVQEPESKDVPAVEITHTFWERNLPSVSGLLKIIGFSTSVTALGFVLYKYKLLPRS

[14] = Drug concentration in Sprague-Dawley rat plasma at 5 mg/kg, ip measured after 15 mins by LC-MS/MS analysis; format: ADME, organism-based
[15] = Protein binding in dog plasma at 1 uM incubated for 5 hrs by LC-MS/MS based rapid equilibrium dialysis method; format: ADME, cell-free, Canis lupus familiaris; conditions: read-out: PPB (converted)
[16] = Apparent permeability across basolateral to apical side in MDCKII-MDR1 cells at 10 uM incubated for 30 mins by LC-MS/MS analysis; format: ADME, cell-based, Canis lupus familiaris; conditions: dog, MDCK-MDR1
[17] = biological target: Voltage-gated inwardly rectifying potassium channel KCNH2 (Homo sapiens, UniProt Q12809); experiment: Inhibition of hERG transfected in CHO-K1 cells at -80 mV holding potential incubated for 2 mins by patch clamp assay; format: toxicity, cell-based
Sequence of Voltage-gated inwardly rectifying potassium channel KCNH2 (Q12809 whole entry): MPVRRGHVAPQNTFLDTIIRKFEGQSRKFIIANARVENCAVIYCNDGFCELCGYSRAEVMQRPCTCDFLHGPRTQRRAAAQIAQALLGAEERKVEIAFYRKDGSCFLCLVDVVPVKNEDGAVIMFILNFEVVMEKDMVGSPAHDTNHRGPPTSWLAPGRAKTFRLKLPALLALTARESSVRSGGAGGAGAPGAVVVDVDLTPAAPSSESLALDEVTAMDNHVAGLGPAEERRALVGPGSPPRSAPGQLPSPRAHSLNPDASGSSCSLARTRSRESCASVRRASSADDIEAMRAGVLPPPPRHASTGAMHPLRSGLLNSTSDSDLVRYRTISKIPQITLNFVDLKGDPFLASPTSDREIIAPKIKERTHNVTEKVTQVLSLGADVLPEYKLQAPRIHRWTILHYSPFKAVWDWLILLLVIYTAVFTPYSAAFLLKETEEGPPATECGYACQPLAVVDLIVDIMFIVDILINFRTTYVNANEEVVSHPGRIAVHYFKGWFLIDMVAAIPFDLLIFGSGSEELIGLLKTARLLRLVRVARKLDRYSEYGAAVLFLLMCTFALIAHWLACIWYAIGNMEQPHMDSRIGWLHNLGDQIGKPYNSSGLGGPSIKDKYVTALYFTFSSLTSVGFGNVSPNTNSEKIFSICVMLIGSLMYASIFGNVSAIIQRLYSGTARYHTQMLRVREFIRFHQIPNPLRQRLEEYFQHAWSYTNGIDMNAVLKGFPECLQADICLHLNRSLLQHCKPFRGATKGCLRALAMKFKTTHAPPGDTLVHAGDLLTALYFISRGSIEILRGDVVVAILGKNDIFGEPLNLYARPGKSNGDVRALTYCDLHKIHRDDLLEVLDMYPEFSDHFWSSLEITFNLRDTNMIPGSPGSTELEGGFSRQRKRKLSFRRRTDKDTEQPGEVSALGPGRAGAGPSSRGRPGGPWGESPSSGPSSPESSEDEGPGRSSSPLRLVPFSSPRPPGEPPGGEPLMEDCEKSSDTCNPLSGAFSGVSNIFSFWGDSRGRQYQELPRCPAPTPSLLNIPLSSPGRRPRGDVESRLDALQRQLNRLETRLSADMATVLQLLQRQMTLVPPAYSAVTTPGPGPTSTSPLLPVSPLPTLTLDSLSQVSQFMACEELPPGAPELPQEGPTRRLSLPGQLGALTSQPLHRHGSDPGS

[18] = biological target: T2, CYP2C8 (Homo sapiens, UniProt P10632); experiment: Inhibition of CYP2C8 in human liver microsomes using amodiaquine as substrate at 10 uM incubated for 45 mins in presence of NADPH by LC-MS/MS analysis relative to control; format: ADME, Microsome; conditions: probe amodiaquine
T2 sequence (P10632 whole entry): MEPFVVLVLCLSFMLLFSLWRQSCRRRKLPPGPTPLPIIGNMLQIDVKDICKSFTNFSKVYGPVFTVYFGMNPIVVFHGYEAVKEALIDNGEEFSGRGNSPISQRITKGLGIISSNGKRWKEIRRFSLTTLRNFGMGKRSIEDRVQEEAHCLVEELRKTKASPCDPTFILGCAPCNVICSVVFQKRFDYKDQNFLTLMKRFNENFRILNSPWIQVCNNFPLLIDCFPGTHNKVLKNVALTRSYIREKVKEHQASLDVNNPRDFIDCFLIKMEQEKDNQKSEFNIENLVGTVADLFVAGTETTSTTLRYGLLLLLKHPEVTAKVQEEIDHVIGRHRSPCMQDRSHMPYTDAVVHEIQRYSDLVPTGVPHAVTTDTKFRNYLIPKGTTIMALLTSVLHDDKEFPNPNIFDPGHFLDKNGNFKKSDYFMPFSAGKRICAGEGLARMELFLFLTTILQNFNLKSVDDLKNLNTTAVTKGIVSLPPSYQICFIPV

[19] = Volume of distribution at steady state in fasted Sprague-Dawley rat at 1 mg/kg, iv measured for 24 hrs; format: ADME, organism-based; conditions: in vivo, read-out: Vdss
[20] = Ratio of drug concentration in Sprague-Dawley brain to plasma at 5 mg/kg, ip measured after 60 mins by LC-MS/MS analysis; format: ADME, organism-based; conditions: rat, read-out: BPR
[21] = biological target: CYP2D6 (Homo sapiens, UniProt P10635); experiment: Inhibition of CYP2D6 in human liver microsomes using propranolol as substrate at 10 uM incubated for 10 mins in presence of NADPH by LC-MS/MS analysis relative to control; format: ADME, Microsome; conditions: probe propranolol
Sequence of CYP2D6 (P10635 whole entry): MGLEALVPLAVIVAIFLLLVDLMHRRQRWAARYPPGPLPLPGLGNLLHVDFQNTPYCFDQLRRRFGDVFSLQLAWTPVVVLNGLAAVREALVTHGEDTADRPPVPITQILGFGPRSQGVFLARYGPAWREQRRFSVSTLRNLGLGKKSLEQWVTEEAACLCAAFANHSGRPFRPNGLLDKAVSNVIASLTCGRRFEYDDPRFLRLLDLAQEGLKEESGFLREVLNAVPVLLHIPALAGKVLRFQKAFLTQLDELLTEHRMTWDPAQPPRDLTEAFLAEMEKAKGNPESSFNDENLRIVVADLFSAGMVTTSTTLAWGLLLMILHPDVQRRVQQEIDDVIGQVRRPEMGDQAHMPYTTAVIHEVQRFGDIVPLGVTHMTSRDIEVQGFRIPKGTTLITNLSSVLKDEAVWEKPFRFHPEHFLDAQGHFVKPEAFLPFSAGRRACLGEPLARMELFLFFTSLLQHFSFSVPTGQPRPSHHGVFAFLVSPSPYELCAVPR

[22] = In vivo inhibition of MAO-B in ICR mouse assessed as reduction in enzyme activity in brain by measuring fold change at 1.28 mg/kg, ip administered once for 30 to 60 mins by amplex red based assay relative to safinamide; format: functional; conditions: time 30-60 min
[23] = Bioavailability in fasted Sprague-Dawley rat at 5 mg/kg, IG measured for 24 hrs; format: ADME, organism-based; conditions: in vivo, po
[24] = tested on: Mus musculus; experiment: In vivo inhibition of MAO-B in ICR mouse assessed as reduction in enzyme activity in brain administered once intraperitoneally for 30 to 60 mins by amplex red based assay; format: functional, organism-based; conditions: dose 0.08-1.28 mg/kg, route ip, time 30-60 min

- concentration at 0.25 h [2]: 5560 ng/g
- fraction unbound at 5 h, 1 µM [3]: 0.0062
- inhibition at 10 min, 10 µM [4]: 8.05%
- Vd [5]: 2.72 L/kg
- half-life [6]: 0.74 h
- half-life at 1 µM [7]: 5.63 h
- inhibition at 0.75 h, 10 µM [8]: 75.9%
- inhibition at 5 min, 10 µM [9]: -45.2%
- bioavailability [10]: 105%
- fraction unbound at 5 h, up to 10 µM [11]: 0.0029
- fraction unbound at 5 h, 1 µM [12]: 0.0058
- pIC50 [13]: < 5.00
- concentration at 0.25 h [14]: 536 ng/mL
- fraction unbound at 5 h, 1 µM [15]: 0.0036
- Papp B→A at 0.5 h, 10 µM [16]: 2.97 ×10⁻⁶ cm/s
- inhibition at 0.75 h, 10 µM [18]: 5.74%
- Vd [19]: 3.33 L/kg
- Kp at 1 h [20]: 16.2
- inhibition at 10 min, 10 µM [21]: -3.37%
- bioavailability [23]: 150%
Structure (SMILES): NC(=O)[C@@H]1C[C@H](F)CN1Cc1ccc2oc(-c3ccc(F)cc3)cc2c1
- Activity [1]: Active
- pIC50 [17]: < 4.52
- fold change (FC) [22]: 5
- inhibition [24]: Active
